Measurements reported in PMC4764579, “Structural insights into the mechanism of activation of the TRPV1 channel by a membrane-bound tarantula toxin” (eLife, 2016).

What was measured:
[1] = biological target: rat TRPV1, full-length channel expressed in HEK293 cells (rat) (UniProt O35433)
Chain of rat TRPV1, full-length channel expressed in HEK293 cells (rat) (O35433 whole entry): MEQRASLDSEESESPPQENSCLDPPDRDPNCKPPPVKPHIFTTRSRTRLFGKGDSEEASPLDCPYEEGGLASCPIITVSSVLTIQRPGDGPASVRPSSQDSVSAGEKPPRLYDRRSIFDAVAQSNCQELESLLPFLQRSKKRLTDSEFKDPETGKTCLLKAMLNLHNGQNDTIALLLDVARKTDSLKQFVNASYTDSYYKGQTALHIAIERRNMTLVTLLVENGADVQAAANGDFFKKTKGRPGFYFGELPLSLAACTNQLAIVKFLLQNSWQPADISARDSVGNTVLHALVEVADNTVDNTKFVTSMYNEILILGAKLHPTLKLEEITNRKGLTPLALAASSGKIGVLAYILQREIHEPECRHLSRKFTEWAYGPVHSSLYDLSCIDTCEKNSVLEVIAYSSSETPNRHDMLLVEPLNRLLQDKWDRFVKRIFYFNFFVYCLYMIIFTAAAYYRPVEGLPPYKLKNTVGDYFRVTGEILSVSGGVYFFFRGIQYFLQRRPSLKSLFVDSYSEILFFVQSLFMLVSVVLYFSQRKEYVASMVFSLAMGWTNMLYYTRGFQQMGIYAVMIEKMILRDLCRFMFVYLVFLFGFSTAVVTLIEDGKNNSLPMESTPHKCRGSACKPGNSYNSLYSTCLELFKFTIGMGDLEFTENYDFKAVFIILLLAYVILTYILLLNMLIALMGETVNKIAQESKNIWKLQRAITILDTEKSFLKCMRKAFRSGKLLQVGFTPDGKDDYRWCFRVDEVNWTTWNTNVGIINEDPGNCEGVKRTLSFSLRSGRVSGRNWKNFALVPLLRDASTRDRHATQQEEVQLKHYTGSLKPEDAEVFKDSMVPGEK

Chain of double-knot toxin (DkTx), full-length toxin produced recombinantly (natural protein) (P0CH43 1-75): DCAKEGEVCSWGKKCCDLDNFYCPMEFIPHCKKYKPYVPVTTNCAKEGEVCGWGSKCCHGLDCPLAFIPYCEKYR

Substance | Trp emission maximum in aqueous solution [nm] | fractional dissociation 1 min after toxin removal (current 1 min after removal divided by steady-state current with toxin), whole-cell patch clamp at +120 mV, TRPV1 in HEK cells [1]
double-knot toxin | 353 | –
double-knot toxin (DkTx), full-length toxin produced recombinantly (natural protein) | – | 0.8
